Assay results from ChEMBL document CHEMBL5370608, “Selective and Bioavailable HDAC6 2-(Difluoromethyl)-1,3,4-oxadiazole Substrate Inhibitors and Modeling of Their Bioactivation Mechanism” (J Med Chem, 2023).
Converted amounts (≈) assume the structure as drawn. The source made the active and inactive calls. The rule behind the calls is not given here.

Legend:
[1] = biological target: T1, Protein deacetylase HDAC6 (Homo sapiens, UniProt Q9UBN7); assay: Inhibition of full length TEV-cleavable N-terminal His6-tagged human recombinant HDAC6 using Ac-RGK (Ac)-AMC as substrate preincubated for 20 hrs followed by substrate addition and measured after 3 hrs by microplate reader analysis
T1 sequence (Q9UBN7 whole entry): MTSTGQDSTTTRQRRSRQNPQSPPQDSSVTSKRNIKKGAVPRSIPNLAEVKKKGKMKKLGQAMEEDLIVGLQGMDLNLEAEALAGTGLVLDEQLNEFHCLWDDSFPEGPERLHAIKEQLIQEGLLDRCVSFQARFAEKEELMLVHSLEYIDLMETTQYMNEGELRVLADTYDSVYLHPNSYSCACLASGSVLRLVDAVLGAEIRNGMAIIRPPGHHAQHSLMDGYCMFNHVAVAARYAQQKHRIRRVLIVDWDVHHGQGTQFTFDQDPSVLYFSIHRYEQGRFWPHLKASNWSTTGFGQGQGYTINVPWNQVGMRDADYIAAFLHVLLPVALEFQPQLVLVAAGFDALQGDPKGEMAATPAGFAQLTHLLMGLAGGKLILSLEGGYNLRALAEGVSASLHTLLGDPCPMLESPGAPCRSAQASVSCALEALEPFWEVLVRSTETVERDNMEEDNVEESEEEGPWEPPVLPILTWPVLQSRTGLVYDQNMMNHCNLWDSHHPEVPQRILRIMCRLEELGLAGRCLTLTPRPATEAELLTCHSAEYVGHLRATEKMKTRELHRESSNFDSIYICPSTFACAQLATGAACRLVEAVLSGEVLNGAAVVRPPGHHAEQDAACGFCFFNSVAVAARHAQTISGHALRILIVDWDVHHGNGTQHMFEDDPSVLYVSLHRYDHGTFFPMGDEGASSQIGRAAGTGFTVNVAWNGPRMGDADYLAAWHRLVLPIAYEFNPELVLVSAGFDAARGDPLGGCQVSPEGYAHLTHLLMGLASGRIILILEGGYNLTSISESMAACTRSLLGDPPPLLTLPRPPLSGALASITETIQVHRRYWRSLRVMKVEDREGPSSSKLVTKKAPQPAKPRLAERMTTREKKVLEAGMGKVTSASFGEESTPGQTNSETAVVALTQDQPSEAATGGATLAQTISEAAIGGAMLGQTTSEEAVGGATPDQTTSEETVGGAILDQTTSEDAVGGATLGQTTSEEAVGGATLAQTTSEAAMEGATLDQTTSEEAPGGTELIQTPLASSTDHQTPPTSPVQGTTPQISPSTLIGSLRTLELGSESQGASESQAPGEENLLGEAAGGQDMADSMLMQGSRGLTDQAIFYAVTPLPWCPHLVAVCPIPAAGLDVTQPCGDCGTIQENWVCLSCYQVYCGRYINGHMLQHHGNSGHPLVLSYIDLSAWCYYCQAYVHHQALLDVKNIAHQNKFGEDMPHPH

[2] = Aqueous solubility of the compound at pH 7.4; assay type: physicochemical
[3] = biological target: T1, Protein deacetylase HDAC6; assay: Inhibition of HDAC6 in human BEAS-2B cells assessed as deacetylation of acetylated alpha-tubulin level incubated for 24 hrs by Western blot analysis; assay type: cell-based
[4] = biological target: T1, Protein deacetylase HDAC6; assay: Inhibition of HDAC6 in human BEAS-2B cells assessed as deacetylation of acetylated histone-3 level incubated for 24 hrs by Western blot analysis; assay type: cell-based
[5] = system: THP-1; assay: Cytotoxicity against human THP-1 cells assessed as reduction in cell viability by alamar blue staining based assay; assay type: functional
[6] = Metabolic stability in human liver microsomes assessed as disappearance of parent compound; assay type: ADME, Microsome; conditions: read-out: CLH
[7] = biological target: T1, Protein deacetylase HDAC6; assay: Stability of the compound assessed as full-length human HDAC6 mediated-drug degradation measured after 96 hrs by time-resolved mass spectrometry analysis; assay type: ADME
[8] = system: THP-1; assay: Cytotoxicity against human THP-1 cells assessed as reduction in cell viability measured upto 250 uM by alamar blue staining based assay; assay type: functional
[9] = Chemical stability of compound in HCL solution at pH 1 assessed as half life by UPLC analysis; assay type: physicochemical
[10] = Chemical stability of compound in sodium phosphate buffer at pH 7.4 assessed as half life by UPLC analysis; assay type: physicochemical
[11] = Chemical stability of compound in sodium carbonate buffer at pH 10 assessed as half life by UPLC analysis; assay type: physicochemical
[12] = biological target: T2, Protein deacetylase HDAC6 (Homo sapiens) (UniProt Q9UBN7); assay: Inhibition of HDAC6 in human BEAS-2B cells assessed as deacetylation of acetylated alpha-tubulin level at 10 uM incubated for 24 hrs by Western blot analysis; assay type: cell-based
T2 sequence (whole entry): T1 sequence (Q9UBN7 whole entry)

Structure (SMILES) | IC50 [1] [µM] | solubility [2] [µM] | EC50 [3] [µM] | IC50 [4] [µM] | IC50 ([5]; read-out: IC50) [µM] | IC50 ([5]; read-out: pIC50 (converted)) [µM] | microsomal CLint [6] [µL/min/mg] | Stability [7] | IC50 [3] [µM] | Activity [8] | half-life [9] [h] | half-life [10] [h] | half-life [11] [h] | inhibition [12]
FC(F)c1nnc(-c2cnc(NC3(c4ccccc4)CCC(F)(F)CC3)nc2)o1 | 0.00398 | 2.6 (≈ 1.06 µg/mL) | 0.631 | > 10 | 130 | 158 | 12 | Unstable |  |  |  |  |  | 
FC(F)c1nnc(-c2ccc(Cn3nnc(-c4ccc(Cl)cc4)n3)nc2)o1 | 0.002 | 1.3 (≈ 0.507 µg/mL) | 1.26 | > 10 |  |  | < 3 |  |  |  |  |  |  | 
COc1cccc(CNC(=O)c2csc(-c3nnn(Cc4ccc(C(=O)NO)cc4)n3)c2)c1 |  |  |  |  |  |  |  |  | 0.2 |  |  |  |  | 
FC(F)c1nnc(-c2ccc(Cn3nnc(-c4ccccc4)n3)nc2)o1 | 0.000794 | 2.9 (≈ 1.03 µg/mL) | 0.316 | > 10 |  | > 251 | < 3 |  |  | inactive |  |  |  | 
COc1cccc(-c2nnn(Cc3ccc(-c4nnc(C(F)F)o4)cn3)n2)c1 | 0.002 | 2.9 (≈ 1.12 µg/mL) | 0.316 | > 10 |  |  | 18 |  |  |  |  |  |  | 
FC(F)c1nnc(-c2cnc(Cn3nnc(-c4ccccn4)n3)nc2)o1 | 0.0158 | 120 (≈ 42.9 µg/mL) | 1.58 | > 10 |  |  | < 3 | Unstable |  |  | 7.2 | 26.4 | < 13.7 | 
O=C(NO)c1cc(F)c(Cn2nnc(-c3ccccn3)n2)c(F)c1 | < 0.000316 | 710 (≈ 236 µg/mL) | 0.02 | 5.01 | 60 | 63.1 | < 3 | Stable |  |  | 624 | 1730 | 504 | 
FC(F)c1nnc(-c2ccc(Cn3nnc(-c4cccnc4)n3)nc2)o1 | 0.00126 | 170 (≈ 60.6 µg/mL) | 1 | > 10 |  |  | < 3 |  |  |  |  |  |  | 
COc1cccc(CNC(=O)c2csc(-c3nnn(Cc4ccc(-c5nnc(C(F)(F)F)o5)cc4)n3)c2)c1 | 0.0126 |  |  |  |  |  |  |  |  |  |  |  |  | inactive
COc1cccc(CNC(=O)c2csc(-c3nnn(Cc4ccc(-c5nnc(C(F)F)o5)cc4)n3)c2)c1 | 0.00158 | < 1.6 |  |  |  |  | 160 |  | 0.01 |  |  |  |  | 
Fc1cc(-c2nnc(C(F)F)o2)cc(F)c1Cn1nnc(-c2ccccn2)n1 | 0.00631 | 52 (≈ 20.3 µg/mL) | 3.16 | > 10 |  | > 251 | < 3 |  |  | inactive | < 13.7 | 57.6 | < 13.7 | 
FC(F)c1nnc(-c2ccc(Cn3nnc(-c4ccccc4Cl)n3)nc2)o1 | 0.000631 | 5.8 (≈ 2.26 µg/mL) | 0.398 | > 10 |  | > 251 | < 3 |  |  | inactive |  |  |  | 
FC(F)c1nnc(-c2ccc(Cn3nnnc3-c3ccccn3)cc2)o1 | 0.0316 | 2.6 (≈ 0.924 µg/mL) | > 10 | > 10 |  | > 251 | 5.8 |  |  | inactive |  |  |  | 
CNC(=O)c1csc(-c2nnn(Cc3ccc(-c4nnc(C(F)F)o4)cc3)n2)c1 | 0.001 | 2.3 (≈ 0.96 µg/mL) | 0.501 | > 10 |  | > 251 | 7.5 |  |  | inactive |  |  |  | 
FC(F)c1nnc(-c2ccc(Cn3nnc(-c4ccccn4)n3)cn2)o1 | > 10 | 120 (≈ 42.8 µg/mL) |  |  |  |  | < 3 |  |  |  |  |  |  | 
FC(F)c1nnc(-c2ccc(Cn3nnc(-c4cccc(Cl)c4)n3)nc2)o1 | 0.00158 | 3.1 (≈ 1.21 µg/mL) | 0.631 | > 10 |  |  | < 3 |  |  |  |  |  |  | 
COc1cccc(CNC(=O)c2csc(-c3nnn(Cc4ccc(-c5nnc(C)o5)cc4)n3)c2)c1 | > 100 |  |  |  |  |  |  |  |  |  |  |  |  | 
FC(F)c1nnc(-c2ccc(Cn3nnc(-c4ccccn4)n3)cc2)o1 | 0.002 | 14 (≈ 4.97 µg/mL) | 3.16 | > 10 |  | > 251 | < 3 |  |  | inactive | 7.44 | 240 | < 13.7 | 
